For orientation: MIC means the lowest concentration found to suppress growth.

Values after ≈ are worked out from the molar mass of the structure shown.

Holding throughout (assay): Bacterial growth minimal inhibitory concentration, microdilution
Common to all, as to format: cell-based
On the technique in general: Broth dilution looks for growth in wells or tubes with falling amounts of substance.

In assay [1] the test system is Acinetobacter baumanii T6474. The settings on record: Acinetobacter baumannii, multiply-resistant, quinolone-resistant strain, cation-adjusted Mueller Hinton Broth. As for the experimental part:
(§1) Minimal Inhibitory Concentrations (MICs; mg/l) were determined in cation-adjusted Mueller Hinton Broth by a microdilution method following the description given in “Methods for Dilution Antimicrobial Susceptibility Tests for Bacteria that Grow Aerobically”, Approved standard, 7th ed., Clinical and Laboratory Standards Institute (CLSI) Document M7-A7, Wayne, Pa., USA, 2006.
(§2) All Example compounds were tested against several Gram positive and especially Gram negative bacteria. […] Staphylococcus aureus A798, Klebsiella pneumoniae A651 and Acinetobacter baumanii T6474 are multiply-resistant strains (in particular quinolone-resistant), while Moraxella catarrhalis A894 and E. coli ATCC 25922 are quinolone-sensitive strains.

Another assay concerns E. coli ATCC 25922. The settings on record: Escherichia coli, ATCC25922; quinolone-sensitive strain; cation-adjusted Mueller Hinton Broth. The method, then:
as §1, §2

Assay [2] deals with Klebsiella pneumoniae A651. The settings on record: multiply-resistant, quinolone-resistant strain, cation-adjusted Mueller Hinton Broth, read-out: MIC for K. pneumoniae A651. The method, then:
as §1, §2

The subject of assay [3] is Moraxella catarrhalis A894. The settings on record: quinolone-sensitive strain, cation-adjusted Mueller Hinton Broth. The method, then:
as §1, §2

Assay [4] relates to Staphylococcus aureus A798. The settings on record: multiply-resistant, quinolone-resistant strain, cation-adjusted Mueller Hinton Broth, read-out: MIC for S. aureus A798. As for the experimental part:
as §1, §2

In the case of `O=C1CSc2ccc(CNC[C@H]3CC[C@H](Nc4nc5c(cc4F)c(=O)c(C(=O)O)cn5C4CC4)CC3)nc2N1` [Example 1, trans-1-Cyclopropyl-6-fluoro-4-oxo-7-(4-{[(3-oxo-3,4-dihydro-2H-pyrido[3,2-b][1,4]thiazin-6-ylmethyl)-amino]-methyl}-cyclohexylamino)-1,4-dihydro-[1,8]naphthyridine-3-carboxylic acid], the MIC came out at 0.125 µg/mL (≈ 0.226 µM) in assay [1]; 0.25 µg/mL (≈ 0.452 µM) against E. coli ATCC 25922; 0.5 µg/mL (≈ 0.905 µM) in assay [2]; 0.125 µg/mL (≈ 0.226 µM) in assay [3]; 1 µg/mL (≈ 1.81 µM) in assay [4].
Take `O=C1CSc2ccc(CN[C@H]3CC[C@H](Nc4nc5c(cc4F)c(=O)c(C(=O)O)cn5C4CC4)CC3)nc2N1` [Example 2, trans-1-Cyclopropyl-6-fluoro-4-oxo-7-{4-[(3-oxo-3,4-dihydro-2H-pyrido[3,2-b][1,4]thiazin-6-ylmethyl)-amino]-cyclohexylamino}-1,4-dihydro-[1,8]naphthyridine-3-carboxylic acid]: the minimum inhibitory concentration (MIC) came to 0.5 µg/mL (≈ 0.928 µM) in assay [1]; 0.5 µg/mL (≈ 0.928 µM) in the assay with E. coli ATCC 25922; 1 µg/mL (≈ 1.86 µM) in assay [2]; 0.25 µg/mL (≈ 0.464 µM) in assay [3]; 4 µg/mL (≈ 7.43 µM) in assay [4].
For the compound `O=C1CSc2ccc(CNC3CCN(CCc4nc5c(cc4F)c(=O)c(C(=O)O)cn5C4CC4)CC3)nc2N1` [Example 3, 1-Cyclopropyl-6-fluoro-4-oxo-7-(2-{4-[(3-oxo-3,4-dihydro-2H-pyrido[3,2-b][1,4]thiazin-6-ylmethyl)-amino]-piperidin-1-yl}-ethyl)-1,4-dihydro-[1,8]naphthyridine-3-carboxylic acid], the minimal inhibitory concentration (MIC) was 4 µg/mL (≈ 7.24 µM) in assay [1]; 0.25 µg/mL (≈ 0.452 µM) in the assay on E. coli ATCC 25922; 1 µg/mL (≈ 1.81 µM) in assay [2]; 0.5 µg/mL (≈ 0.905 µM) in assay [3]; 2 µg/mL (≈ 3.62 µM) in assay [4].
Taken in the same sequence, the figures for `O=C1CSc2ccc(CNCCN3CCN(c4nc5c(cc4F)c(=O)c(C(=O)O)cn5C4CC4)CC3)nc2N1` [Example 4, 1-Cyclopropyl-6-fluoro-4-oxo-7-(4-{2-[(3-oxo-3,4-dihydro-2H-pyrido[3,2-b][1,4]thiazin-6-ylmethyl)-amino]-ethyl}-piperazin-1-yl)-1,4-dihydro-[1,8]naphthyridine-3-carboxylic acid] were 2 µg/mL (≈ 3.61 µM), 1 µg/mL (≈ 1.81 µM), 2 µg/mL (≈ 3.61 µM), 0.25 µg/mL (≈ 0.452 µM) and more than 8 µg/mL.
The corresponding values for `O=C1CSc2ccc(CNCCC3CCN(c4nc5c(cc4F)c(=O)c(C(=O)O)cn5C4CC4)CC3)nc2N1` [Example 5, 1-Cyclopropyl-6-fluoro-4-oxo-7-(4-{2-[(3-oxo-3,4-dihydro-2H-pyrido[3,2-b][1,4]thiazin-6-ylmethyl)-amino]-ethyl}-piperidin-1-yl)-1,4-dihydro-[1,8]naphthyridine-3-carboxylic acid] are 1 µg/mL (≈ 1.81 µM), 0.5 µg/mL (≈ 0.905 µM), 2 µg/mL (≈ 3.62 µM), 0.125 µg/mL (≈ 0.226 µM) and 8 µg/mL (≈ 14.5 µM).
Taken in the same sequence, the figures for `O=C1CSc2ccc(CN3CCC(CCNc4nc5c(cc4F)c(=O)c(C(=O)O)cn5C4CC4)CC3)nc2N1` [Example 6, 1-Cyclopropyl-6-fluoro-4-oxo-7-{2-[1-(3-oxo-3,4-dihydro-2H-pyrido[3,2-b][1,4]thiazin-6-ylmethyl)-piperidin-4-yl]-ethylamino}-1,4-dihydro-[1,8]naphthyridine-3-carboxylic acid] were 0.5 µg/mL (≈ 0.905 µM), 2 µg/mL (≈ 3.62 µM), 2 µg/mL (≈ 3.62 µM), 0.5 µg/mL (≈ 0.905 µM) and more than 8 µg/mL.
For the compound `O=C1CSc2ccc(CNCC3CCN(c4nc5c(cc4F)c(=O)c(C(=O)O)cn5C4CC4)CC3)nc2N1` [Example 7, 1-Cyclopropyl-6-fluoro-4-oxo-7-(4-{[(3-oxo-3,4-dihydro-2H-pyrido[3,2-b][1,4]thiazin-6-ylmethyl)-amino]-methyl}-piperidin-1-yl)-1,4-dihydro-[1,8]naphthyridine-3-carboxylic acid], the MIC in assay [1] was 2 µg/mL (≈ 3.71 µM); against E. coli ATCC 25922, 0.5 µg/mL (≈ 0.928 µM); in assay [2], 4 µg/mL (≈ 7.43 µM); in assay [3] it was 0.031 µg/mL (≈ 0.0576 µM); in assay [4] it was more than 8 µg/mL.
Taken in the same sequence, the figures for `O=C1COc2ccc(CNC[C@H]3CC[C@H](Nc4nc5c(cc4F)c(=O)c(C(=O)O)cn5C4CC4)CC3)nc2N1` [Example 8, trans-1-Cyclopropyl-6-fluoro-4-oxo-7-(4-{[(3-oxo-3,4-dihydro-2H-pyrido[3,2-b][1,4]oxazin-6-ylmethyl)-amino]-methyl}-cyclohexylamino)-1,4-dihydro-[1,8]naphthyridine-3-carboxylic acid] were more than 8 µg/mL, 0.5 µg/mL (≈ 0.932 µM), 8 µg/mL (≈ 14.9 µM), 0.25 µg/mL (≈ 0.466 µM) and more than 8 µg/mL.
Consider `O=C1CSc2ccc(CNCC3CCN(Cc4nc5c(cc4F)c(=O)c(C(=O)O)cn5C4CC4)CC3)nc2N1` [Example 9, 1-Cyclopropyl-6-fluoro-4-oxo-7-(4-{[(3-oxo-3,4-dihydro-2H-pyrido[3,2-b][1,4]thiazin-6-ylmethyl)-amino]-methyl}-piperidin-1-ylmethyl)-1,4-dihydro-[1,8]naphthyridine-3-carboxylic acid], for which the MIC was 8 µg/mL (≈ 14.5 µM) in assay [1]; 1 µg/mL (≈ 1.81 µM) in the assay on E. coli ATCC 25922; 2 µg/mL (≈ 3.62 µM) in assay [2]; 1 µg/mL (≈ 1.81 µM) in assay [3]; more than 8 µg/mL in assay [4].
Take `O=C1CSc2ccc(CNC3CCN(c4nc5c(cc4F)c(=O)c(C(=O)O)cn5C4CC4)CC3)nc2N1` [Example 10, 1-Cyclopropyl-6-fluoro-4-oxo-7-{4-[(3-oxo-3,4-dihydro-2H-pyrido[3,2-b][1,4]thiazin-6-ylmethyl)-amino]-piperidin-1-yl}-1,4-dihydro-[1,8]naphthyridine-3-carboxylic acid]: the minimal inhibitory concentration (MIC) worked out at 0.25 µg/mL (≈ 0.477 µM) in assay [1]; 0.5 µg/mL (≈ 0.953 µM) in the assay with E. coli ATCC 25922; 1 µg/mL (≈ 1.91 µM) in assay [2]; 0.063 µg/mL (≈ 0.12 µM) in assay [3]; 4 µg/mL (≈ 7.63 µM) in assay [4].
Taken in the same sequence, the figures for `O=C1CSc2ccc(CNCCN3CCN(c4cc5c(cc4F)c(=O)c(C(=O)O)cn5C4CC4)CC3)nc2N1` [Example 11, 1-Cyclopropyl-6-fluoro-4-oxo-7-(4-{2-[(3-oxo-3,4-dihydro-2H-pyrido[3,2-b][1,4]thiazin-6-ylmethyl)-amino]-ethyl}-piperazin-1-yl)-1,4-dihydro-quinoline-3-carboxylic acid] were more than 8 µg/mL, 2 µg/mL (≈ 3.62 µM), 8 µg/mL (≈ 14.5 µM), 1 µg/mL (≈ 1.81 µM) and 8 µg/mL (≈ 14.5 µM).
The corresponding values for `O=C1COc2ccc(CNCCN3CCN(c4nc5c(cc4F)c(=O)c(C(=O)O)cn5C4CC4)CC3)nc2N1` [Example 12, 1-Cyclopropyl-6-fluoro-4-oxo-7-(4-{2-[(3-oxo-3,4-dihydro-2H-pyrido[3,2-b][1,4]oxazin-6-ylmethyl)-amino]-ethyl}-piperazin-1-yl)-1,4-dihydro-[1,8]naphthyridine-3-carboxylic acid] are 8 µg/mL (≈ 14.9 µM), 2 µg/mL (≈ 3.72 µM), 8 µg/mL (≈ 14.9 µM), 1 µg/mL (≈ 1.86 µM) and more than 8 µg/mL.
Taken in the same sequence, the figures for `Cn1cc(C(=O)O)c(=O)c2cc(F)c(N[C@H]3CC[C@H](CNCc4ccc5c(n4)NC(=O)CS5)CC3)nc21` [Example 13, trans-6-Fluoro-1-methyl-4-oxo-7-(4-{[(3-oxo-3,4-dihydro-2H-pyrido[3,2-b][1,4]thiazin-6-ylmethyl)-amino]-methyl}-cyclohexylamino)-1,4-dihydro-[1,8]naphthyridine-3-carboxylic acid] were 0.125 µg/mL (≈ 0.237 µM), 0.063 µg/mL (≈ 0.12 µM), 0.25 µg/mL (≈ 0.475 µM), 0.031 µg/mL (≈ 0.0589 µM) and 1 µg/mL (≈ 1.9 µM).
For `Cn1cc(C(=O)O)c(=O)c2cc(F)c(N[C@H]3CC[C@H](CNCc4ccc5c(n4)NC(=O)CO5)CC3)nc21` [Example 14, trans-6-Fluoro-1-methyl-4-oxo-7-(4-{[(3-oxo-3,4-dihydro-2H-pyrido[3,2-b][1,4]oxazin-6-ylmethyl)-amino]-methyl}-cyclohexylamino)-1,4-dihydro-[1,8]naphthyridine-3-carboxylic acid], the MIC in assay [1] is 1 µg/mL (≈ 1.96 µM); in the assay with E. coli ATCC 25922 it was 0.125 µg/mL (≈ 0.245 µM); in assay [2] it was 1 µg/mL (≈ 1.96 µM); in assay [3] it was 0.063 µg/mL (≈ 0.123 µM); in assay [4] it was 8 µg/mL (≈ 15.7 µM).
Consider `CCn1cc(C(=O)O)c(=O)c2cc(F)c(N[C@H]3CC[C@H](CNCc4ccc5c(n4)NC(=O)CS5)CC3)nc21` [Example 15, trans-1-Ethyl-6-fluoro-4-oxo-7-(4-{[(3-oxo-3,4-dihydro-2H-pyrido[3,2-b][1,4]thiazin-6-ylmethyl)-amino]-methyl}-cyclohexylamino)-1,4-dihydro-[1,8]naphthyridine-3-carboxylic acid], for which the MIC worked out at 0.063 µg/mL (≈ 0.117 µM) in assay [1]; 0.125 µg/mL (≈ 0.231 µM) in the assay with E. coli ATCC 25922; 0.5 µg/mL (≈ 0.925 µM) in assay [2]; 0.031 µg/mL (≈ 0.0573 µM) in assay [3]; 1 µg/mL (≈ 1.85 µM) in assay [4].
The corresponding values for `Cn1cc(C(=O)O)c(=O)c2cc(F)c(N3CCC(CCNCc4ccc5c(n4)NC(=O)CO5)CC3)nc21` [Example 16, 6-Fluoro-1-methyl-4-oxo-7-(4-{2-[(3-oxo-3,4-dihydro-2H-pyrido[3,2-b][1,4]oxazin-6-ylmethyl)-amino]-ethyl}-piperidin-1-yl)-1,4-dihydro-[1,8]naphthyridine-3-carboxylic acid] are 0.5 µg/mL (≈ 0.979 µM), 0.25 µg/mL (≈ 0.49 µM), 1 µg/mL (≈ 1.96 µM), 0.125 µg/mL (≈ 0.245 µM) and 2 µg/mL (≈ 3.92 µM).

Source of the values: patent publication US9540399B2, “Quinolone derivatives” (priority 2013, dated 2017).
